Source: patent publication US20240245677A1, “SELECTED COMPOUNDS FOR TARGETED DEGRADATION OF BRD9” (C4 THERAPEUTICS, INC., priority 2021, published 2024)

Legend:
[1] = Approximate solubility in solvents at 25° C. and 50° C. (visual observation); type: physicochemical; conditions: for Solubility (mg/mL), 25° C.: target conc. = 250 mg/mL; for Solubility (mg/mL), 50° C.: target conc. = 500 mg/mL
Protocol: Max. volume of each solvent added was 1 mL. Approximate solubility was determined by visual observation.
Max volume of each solvent added was 1 mL. Approximate solubility was determined by visual observation.

[2] = Equilibration with solvents at 50° C. for 1 week (XRPD); type: physicochemical
Protocol: The obtained suspension was filtered through a 0.45 μm nylon membrane filter by centrifugation at 14,000 rpm for 5 min. Solid parts (wet cakes) were investigated by XRPD immediately. For samples with different XRPD results, additional analysis including HPLC, DSC, TGA, ^1H-NMR and KF was performed. Some samples with Form K were exposure to ambient condition and investigated by XRPD again.

[3] = Equilibration under a temperature cycle (XRPD); type: physicochemical
Protocol: Obtained suspension was filtered through a 0.45 μm nylon membrane filter by centrifugation at 14,000 rpm for 5 min. Solid parts (wet cakes) were investigated by XRPD immediately. For samples with different XRPD results, additional analysis including HPLC, DSC, TGA, ^1H-NMR and KF was performed. Some samples with Form K were exposure to ambient condition and investigated by XRPD again.

[4] = Equilibration with solvents at 25° C. for 2 weeks (XRPD); type: physicochemical
Protocol: Obtained suspension was filtered through a 0.45 μm nylon membrane filter by centrifugation at 14,000 rpm for 5 min. Solid parts (wet cakes) were investigated by XRPD immediately. Some samples with Form K were exposure to ambient condition and investigated by XRPD again.

SALL4 = target: T1, SALL4 (Homo sapiens, UniProt Q96SW2+Q9UJQ4); test: SALL4 HiBiT degradation assay in KELLY.2 cells; type: cell-based; conditions: read-out: Mean Emax (%) ± SD
T1 construct: CRISPR-edited to endogenously express HiBiT tagged SALL4; host or cells: KELLY.2
T1 sequence (Q9UJQ4 whole entry): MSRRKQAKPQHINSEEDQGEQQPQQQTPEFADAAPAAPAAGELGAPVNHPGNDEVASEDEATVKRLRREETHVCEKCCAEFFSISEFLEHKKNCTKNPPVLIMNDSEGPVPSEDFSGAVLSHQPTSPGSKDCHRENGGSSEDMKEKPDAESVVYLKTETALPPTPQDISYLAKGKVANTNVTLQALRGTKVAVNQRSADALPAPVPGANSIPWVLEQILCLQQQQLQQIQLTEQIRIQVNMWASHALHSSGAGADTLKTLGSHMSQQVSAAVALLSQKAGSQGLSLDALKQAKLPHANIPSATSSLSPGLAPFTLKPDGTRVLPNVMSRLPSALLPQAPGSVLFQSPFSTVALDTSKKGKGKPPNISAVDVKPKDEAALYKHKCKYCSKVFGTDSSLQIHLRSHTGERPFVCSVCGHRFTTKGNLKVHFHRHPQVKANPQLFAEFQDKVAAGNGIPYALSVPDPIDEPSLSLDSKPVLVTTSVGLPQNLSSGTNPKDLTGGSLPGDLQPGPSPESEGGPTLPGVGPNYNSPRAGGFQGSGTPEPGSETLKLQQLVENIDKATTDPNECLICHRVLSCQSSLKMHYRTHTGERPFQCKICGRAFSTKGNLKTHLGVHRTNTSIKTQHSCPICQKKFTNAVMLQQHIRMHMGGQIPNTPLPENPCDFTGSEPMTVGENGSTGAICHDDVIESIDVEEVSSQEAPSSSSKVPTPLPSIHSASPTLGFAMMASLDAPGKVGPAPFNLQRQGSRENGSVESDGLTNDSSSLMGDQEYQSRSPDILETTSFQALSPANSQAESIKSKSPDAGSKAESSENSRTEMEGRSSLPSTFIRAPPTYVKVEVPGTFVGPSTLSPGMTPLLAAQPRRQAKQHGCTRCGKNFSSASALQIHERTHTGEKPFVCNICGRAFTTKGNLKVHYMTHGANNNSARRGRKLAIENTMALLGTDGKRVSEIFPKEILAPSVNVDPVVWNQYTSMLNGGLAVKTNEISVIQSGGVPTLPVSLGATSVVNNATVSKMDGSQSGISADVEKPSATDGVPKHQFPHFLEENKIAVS
T1 sequence (Q96SW2 whole entry): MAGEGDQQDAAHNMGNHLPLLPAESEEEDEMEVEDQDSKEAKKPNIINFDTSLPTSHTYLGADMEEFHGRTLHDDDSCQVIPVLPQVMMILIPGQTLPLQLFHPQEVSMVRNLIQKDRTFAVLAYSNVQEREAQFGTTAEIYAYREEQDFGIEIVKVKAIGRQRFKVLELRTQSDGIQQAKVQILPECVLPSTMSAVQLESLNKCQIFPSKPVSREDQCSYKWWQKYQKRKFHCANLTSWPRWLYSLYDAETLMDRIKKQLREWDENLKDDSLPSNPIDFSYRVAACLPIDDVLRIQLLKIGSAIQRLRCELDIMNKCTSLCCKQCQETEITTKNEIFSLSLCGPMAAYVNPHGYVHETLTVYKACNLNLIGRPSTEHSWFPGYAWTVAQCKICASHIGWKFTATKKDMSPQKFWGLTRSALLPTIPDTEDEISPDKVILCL
T1 sequence (Q16531 2-1140 partner limits assumed): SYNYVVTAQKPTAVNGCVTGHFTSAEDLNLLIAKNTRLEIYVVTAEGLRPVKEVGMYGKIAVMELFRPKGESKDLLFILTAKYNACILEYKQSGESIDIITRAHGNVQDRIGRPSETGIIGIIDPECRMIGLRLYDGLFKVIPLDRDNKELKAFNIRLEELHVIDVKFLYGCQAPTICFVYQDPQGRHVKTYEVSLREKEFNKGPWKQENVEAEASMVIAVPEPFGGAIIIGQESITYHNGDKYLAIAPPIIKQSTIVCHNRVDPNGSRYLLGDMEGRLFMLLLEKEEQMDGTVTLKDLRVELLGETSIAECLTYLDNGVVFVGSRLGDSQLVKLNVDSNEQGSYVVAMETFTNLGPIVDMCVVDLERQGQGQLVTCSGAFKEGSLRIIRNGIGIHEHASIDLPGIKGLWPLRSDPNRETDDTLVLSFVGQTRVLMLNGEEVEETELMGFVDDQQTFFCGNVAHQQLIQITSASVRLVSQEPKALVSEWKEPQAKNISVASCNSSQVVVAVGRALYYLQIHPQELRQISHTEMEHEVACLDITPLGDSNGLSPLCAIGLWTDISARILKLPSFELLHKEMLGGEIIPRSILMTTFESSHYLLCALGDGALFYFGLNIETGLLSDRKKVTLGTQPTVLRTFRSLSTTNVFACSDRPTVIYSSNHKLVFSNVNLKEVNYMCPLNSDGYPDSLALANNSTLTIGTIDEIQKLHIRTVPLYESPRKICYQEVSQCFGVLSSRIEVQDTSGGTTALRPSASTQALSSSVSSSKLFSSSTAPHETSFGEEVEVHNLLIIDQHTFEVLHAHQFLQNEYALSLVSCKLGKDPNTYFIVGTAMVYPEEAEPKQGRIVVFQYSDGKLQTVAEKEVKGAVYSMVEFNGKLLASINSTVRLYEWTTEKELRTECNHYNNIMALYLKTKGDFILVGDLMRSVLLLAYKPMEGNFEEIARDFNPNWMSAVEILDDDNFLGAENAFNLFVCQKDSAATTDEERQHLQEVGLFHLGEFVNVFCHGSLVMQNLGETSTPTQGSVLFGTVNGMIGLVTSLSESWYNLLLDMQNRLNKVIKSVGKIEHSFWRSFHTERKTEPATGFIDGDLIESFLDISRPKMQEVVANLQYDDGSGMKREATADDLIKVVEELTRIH
Text: Nano-Glo® HiBiT Lytic Assay System was purchased from Promega (Catalog No. N3050, Madison, WI, USA). […] The HiBiT polypeptide tag was introduced into the C-terminus of the endogenous SALL4 locus by CRISPR-Cas9 to produce the modified KELLY.2 cell line. The HiBiT polypeptide allows reconstitution of NanoBiT enzyme following cell lysis and addition of the complementing LgBiT polypeptide that activates substrate to produce a luminescent signal that is directly proportional to the amount of HiBiT-tagged SALL4.
KELLY.2 cells were routinely sub-cultured to maintain cell density between 30-80% confluence, not to exceed 10 passages. Cells were washed with PBS, trypsinized for 5 minutes at 37° C., and resuspended in fresh growth media without phenol red. […] Cell concentration was adjusted with growth media without phenol red to 2×10^5 cells/mL.
30 nL DMSO was transferred to all control wells.
30 μL of media was dispensed to column 24 as background positive control (P). Plates were spun briefly at 1000 rpm and cells were incubated at 37° C., 5% CO2 for 6 hours. Final concentration of DMSO was 0.1% for all samples.
Cellular SALL4 protein level was determined based on quantification of HiBiT using Nano-Glo® HiBiT Lytic Assay System (Promega). […] Cells treated in the absence of the test compound (0.1% DMSO vehicle) were the negative control (N) and wells containing only media were the positive control (P).
Percent response of compound-treated samples (T) were calculated by normalizing to the DMSO treated negative (N) controls on the same microtiter plate after background (i.e., positive control) signal subtraction:
Curve fit and DC50 (concentration that degrades 50% SALL4) determination was performed by 4 parametric logistic fit analysis using software such as GraphPad Prism software (GraphPad Software, LLC, San Diego, CA, USA). The fit was performed through minimization of the root mean squared error between observed and calculated values of the four-parameter logistic equation using the simplex optimizer of the Apache Commons Math library. […] DC50 values were computed as the concentrations where the fitted curves cross the 50% response level. Averages and standard deviations were computed from replicates of the experiment.

IKZF1 = target: T2, IKZF1 (Homo sapiens, UniProt Q13422+Q96SW2); test: IKZF1 HiBiT degradation assay in NCIH929.11 cells; type: cell-based
T2 construct: CRISPR-edited to endogenously express HiBiT tagged IKZF1; host or cells: NCIH929.11
T2 sequence (Q13422 whole entry): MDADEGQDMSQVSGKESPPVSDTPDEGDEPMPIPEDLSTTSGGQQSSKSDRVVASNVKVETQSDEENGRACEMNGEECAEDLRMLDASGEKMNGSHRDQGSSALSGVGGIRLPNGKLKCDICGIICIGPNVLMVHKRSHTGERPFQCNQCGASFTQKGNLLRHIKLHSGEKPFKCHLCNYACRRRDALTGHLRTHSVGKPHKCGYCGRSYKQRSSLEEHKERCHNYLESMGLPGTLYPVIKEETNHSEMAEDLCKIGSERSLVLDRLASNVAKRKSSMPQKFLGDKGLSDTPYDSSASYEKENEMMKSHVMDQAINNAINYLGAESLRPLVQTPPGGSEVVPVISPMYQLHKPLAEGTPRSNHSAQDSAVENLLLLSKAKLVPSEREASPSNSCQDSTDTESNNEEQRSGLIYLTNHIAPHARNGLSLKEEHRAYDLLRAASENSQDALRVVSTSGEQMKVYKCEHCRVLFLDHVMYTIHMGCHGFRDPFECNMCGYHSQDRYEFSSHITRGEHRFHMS
T2 sequence (Q96SW2 whole entry): as the sequence (Q96SW2 whole entry) above
T2 sequence (Q16531 2-1140 partner limits assumed): as the sequence (Q16531 2-1140 partner limits assumed) above

COc1cc(-c2cn(C)c(=O)c(C)c2C)cc(OC)c1CN1CC[C@H](N2CCN(c3ccc(N[C@H]4CCC(=O)NC4=O)cc3F)CC2)C(F)(F)C1 [Pattern E]
Solubility (mg/mL), 25° C. ([1]; 1,4-Dioxane): >250 mg/mL | Solubility (mg/mL), 50° C. ([1]; 1,4-Dioxane): >500 mg/mL | Solubility (mg/mL), 25° C. ([1]; 2-MeTHF): 83 to 125 mg/mL | Solubility (mg/mL), 50° C. ([1]; 2-MeTHF): 250 to 500 mg/mL | Solubility (mg/mL), 25° C. ([1]; Acetone): 20 to 25 mg/mL | Solubility (mg/mL), 50° C. ([1]; Acetone): 100 to 200 mg/mL | Solubility (mg/mL), 25° C. ([1]; Acetonitrile): 5 to 6 mg/mL | Solubility (mg/mL), 50° C. ([1]; Acetonitrile): <10 mg/mL | Solubility (mg/mL), 25° C. ([1]; DCM): 125 to 250 mg/mL | Solubility (mg/mL), 25° C. ([1]; DMSO): >250 mg/mL | Solubility (mg/mL), 50° C. ([1]; DMSO): >500 mg/mL | Solubility (mg/mL), 25° C. ([1]; Ethanol): 6 to 8 mg/mL | Solubility (mg/mL), 50° C. ([1]; Ethanol): 16 to 25 mg/mL | Solubility (mg/mL), 25° C. ([1]; Ethyl acetate): 6 to 8 mg/mL | Solubility (mg/mL), 50° C. ([1]; Ethyl acetate): 14 to 20 mg/mL | Solubility (mg/mL), 25° C. ([1]; Heptane): <5 mg/mL | Solubility (mg/mL), 50° C. ([1]; Heptane): <10 mg/mL | Solubility (mg/mL), 25° C. ([1]; MTBE (Methyl tert-butyl ether)): <5 mg/mL | Solubility (mg/mL), 50° C. ([1]; MTBE): <10 mg/mL | Solubility (mg/mL), 25° C. ([1]; Methanol): 8 to 13 mg/mL | Solubility (mg/mL), 50° C. ([1]; Methanol): 18 to 22 mg/mL | Solubility (mg/mL), 25° C. ([1]; Methanol/water (v:v = 95:5)): 8 to 13 mg/mL | Solubility (mg/mL), 50° C. ([1]; Methanol/water (v:v = 95:5)): 14 to 20 mg/mL | Solubility (mg/mL), 25° C. ([1]; THF (Tetrahydrofuran)): >250 mg/mL | Solubility (mg/mL), 50° C. ([1]; THF): >500 mg/mL | Solubility (mg/mL), 25° C. ([1]; Toluene): <5 mg/mL | Solubility (mg/mL), 50° C. ([1]; Toluene): <10 mg/mL | Solubility (mg/mL), 25° C. ([1]; Water): <5 mg/mL | Solubility (mg/mL), 50° C. ([1]; Water): <10 mg/mL | XRPD ([2]; equilibration at 50° C. for 1 week, 1,4-Dioxane/heptane (v:v = 1:1)): +Pattern B | XRPD ([2]; equilibration at 50° C. for 1 week, 2-MeTHF): +Pattern B | XRPD ([2]; equilibration at 50° C. for 1 week, Acetone): +Pattern B | XRPD ([2]; equilibration at 50° C. for 1 week, Acetone/water (v:v = 36:64) a.w. = 0.90): +Pattern K | XRPD ([2]; equilibration at 50° C. for 1 week, Acetone/water (v:v = 76:24) a.w. = 0.71): +Pattern B | XRPD ([2]; equilibration at 50° C. for 1 week, Acetone/water (v:v = 92:8) a.w. = 0.50): +Pattern B | XRPD ([2]; equilibration at 50° C. for 1 week, Acetonitrile): +Pattern F | XRPD ([2]; equilibration at 50° C. for 1 week, DMSO/water (v:v = 23:77) a.w. = 0.91): +Pattern K | XRPD ([2]; equilibration at 50° C. for 1 week, DMSO/water (v:v = 64:36) a.w. = 0.53): +Pattern B | XRPD ([2]; equilibration at 50° C. for 1 week, Ethanol): +Pattern F | XRPD ([2]; equilibration at 50° C. for 1 week, Ethyl acetate): +Pattern F | XRPD ([2]; equilibration at 50° C. for 1 week, THF/heptane (v:v = 1:1)): +Pattern B | XRPD ([2]; equilibration at 50° C. for 1 week, Toluene): +Pattern G | XRPD ([3]; equilibration under a temperature cycle, 1,4-Dioxane/heptane (v:v = 1:1)): +Pattern B | XRPD ([3]; equilibration under a temperature cycle, 2-MeTHF): +Pattern F | XRPD ([3]; equilibration under a temperature cycle, Acetone): +Pattern B | XRPD ([3]; equilibration under a temperature cycle, Acetone/water (v:v = 36:64)): +Pattern K | XRPD ([3]; equilibration under a temperature cycle, Acetone/water (v:v = 76:24)): +Pattern A | XRPD ([3]; equilibration under a temperature cycle, Acetone/water (v:v = 92:8)): +Pattern B | XRPD ([3]; equilibration under a temperature cycle, Acetonitrile): +Pattern B | XRPD ([3]; equilibration under a temperature cycle, DCM/heptane (v:v = 1:1)): +Pattern F | XRPD ([3]; equilibration under a temperature cycle, DMSO/water (v:v = 64:36)): +Pattern F | XRPD ([3]; equilibration under a temperature cycle, Ethanol): +Pattern F | XRPD ([3]; equilibration under a temperature cycle, Ethyl acetate): +Pattern F | XRPD ([3]; equilibration under a temperature cycle, Methanol): +Pattern B | XRPD ([3]; equilibration under a temperature cycle, THF/heptane (v:v = 1:1)): +Pattern F | XRPD ([3]; equilibration under a temperature cycle, Toluene): +Pattern A | XRPD after equilibration at 25° C. for 2 weeks ([4]; 1,4-dioxane/heptane (v:v = 1:1)): +Pattern B | XRPD after equilibration at 25° C. for 2 weeks ([4]; 2-MeTHF): +Pattern B | XRPD after equilibration at 25° C. for 2 weeks ([4]; Acetone): +Pattern B | XRPD after equilibration at 25° C. for 2 weeks ([4]; Acetone/water (v:v = 36:64) a.w. = 0.90): +Pattern K | XRPD after equilibration at 25° C. for 2 weeks ([4]; Acetone/water (v:v = 76:24) a.w. = 0.70): +Pattern B | XRPD after equilibration at 25° C. for 2 weeks ([4]; Acetone/water (v:v = 92:8) a.w. = 0.50): +Pattern B | XRPD after equilibration at 25° C. for 2 weeks ([4]; Acetonitrile): +Pattern B | XRPD after equilibration at 25° C. for 2 weeks ([4]; DCM/heptane (v:v = 1:1)): +Pattern F | XRPD after equilibration at 25° C. for 2 weeks ([4]; DMSO/water (v:v = 23:77) a.w. = 0.91): +Pattern K | XRPD after equilibration at 25° C. for 2 weeks ([4]; Ethanol): +Pattern A | XRPD after equilibration at 25° C. for 2 weeks ([4]; Ethyl acetate): +Pattern F | XRPD after equilibration at 25° C. for 2 weeks ([4]; Methanol): +Pattern K | XRPD after equilibration at 25° C. for 2 weeks ([4]; THF/heptane (v:v = 1:1)): +Pattern B | XRPD after equilibration at 25° C. for 2 weeks ([4]; Toluene): +Pattern K

Nc1cccc2c1C(=O)N(C1CCC(=O)NC1=O)C2=O (stereo not shown) [Pomalidomide, reference compound]
Emax (SALL4): 9.5 ± 1.5% | degradation of IKZF1 induced (IKZF1; positive control, 6 hours): 8000 | Emax (IKZF1; read-out: Mean Emax (%) ± SD): 20.8 ± 3.2%
